Test results as given in patent US9102670B2, “Pyrido-, pyrazo- and pyrimido-pyrimidine derivatives as mTOR inhibitors” (KuDOS Pharmaceuticals Limited, priority 2006, dated 2015).

Tested on: phosphorylation of Serine 473 in Akt
Assay: In Vitro Phospho-Ser473 Akt Assay in MDA-MB-468 cells
Format: cell-based
Conditions: Homo sapiens, MDA-MB-468, read-out: IC50 values against mTOR, phospho-Ser473 Akt assay, MDA-MB-468 cells

SMILES | IC50 [nM]
COc1ccc(-c2ccc3c(N4CCOC[C@@H]4C)nc(Nc4ccccn4)nc3n2)cc1CO [Example 18p] | < 300
COc1ccc(-c2ccc3c(N4CCOC[C@@H]4C)nc(N4CCCC4)nc3n2)cc1CO [Example 18q] | < 100
CCOC(=O)C1CCCN(c2nc(N3CCOC[C@@H]3C)c3ccc(-c4ccc(OC)c(CO)c4)nc3n2)C1 (some centres unmarked) [Example 18r] | < 100
COc1ccc(-c2ccc3c(N4CCOC[C@@H]4C)nc(N4CCC(CN)CC4)nc3n2)cc1CO [Example 18s] | < 100
COc1ccc(-c2ccc3c(N4CCOC[C@@H]4C)nc(N4CCC(C)CC4)nc3n2)cc1CO [Example 18t] | < 100
CCOC(=O)C1CCN(c2nc(N3CCOC[C@@H]3C)c3ccc(-c4ccc(OC)c(CO)c4)nc3n2)CC1 [Example 18u] | < 100
COc1ccc(-c2ccc3c(N4CCOC[C@@H]4C)nc(N4CCC(C(N)=O)CC4)nc3n2)cc1CO [Example 18v] | < 100
COc1ccc(C(=O)C2CCN(c3nc(N4CCOC[C@@H]4C)c4ccc(-c5ccc(OC)c(CO)c5)nc4n3)CC2)cc1 [Example 18w] | < 300
COc1ccc(-c2ccc3c(N4CCOC[C@@H]4C)nc(N4CCC(CO)CC4)nc3n2)cc1CO [Example 18x] | < 100
COc1ccc(-c2ccc3c(N4CCOC[C@@H]4C)nc(N4CCCC(CO)C4)nc3n2)cc1CO (some centres unmarked) [Example 18y] | < 100
COc1ccc(-c2ccc3c(N4CCOC[C@@H]4C)nc(-c4cccc(C=O)c4)nc3n2)cc1CO [Example 19b] | < 300
COc1ccc(-c2ccc3c(N4CCOC[C@@H]4C)nc(-c4cccc(CO)c4)nc3n2)cc1CO [Example 19c] | < 300
COc1ccc(-c2ccc3c(N4CCOC[C@@H]4C)nc(-c4cccnc4)nc3n2)cc1CO [Example 19j] | < 100
COc1ccc(-c2ccc3c(N4CCOC[C@@H]4C)nc(-c4cccc(C(N)=O)c4)nc3n2)cc1CO [Example 19k] | < 300
COc1ccc(-c2nc(N3CCOC[C@@H]3C)c3ccc(-c4cccc(CO)c4)nc3n2)cn1 [Example 19p] | < 100

Same assay, conditions: Homo sapiens, MDA-MB-468, read-out: IC50 values against mTOR, phospho-Ser473 Akt assay, MDA-MB-468 cells, upper bound

SMILES | IC50 [nM]
COc1ccc(-c2ccc3c(N4CCOC[C@@H]4C)nc(Nc4cccnc4)nc3n2)cc1CO [Example 18o] | < 1000
COc1ccc(-c2ccc3c(N4CCOC[C@@H]4C)nc(N4CCC(N5CCCCC5)CC4)nc3n2)cc1CO [Example 18z] | < 1000
COc1ccc(-c2ccc3c(N4CCOC[C@@H]4C)nc(-c4cccc(CN)c4)nc3n2)cc1CO [Example 19e] | < 1000
COC(=O)c1cccc(-c2nc(N3CCOC[C@@H]3C)c3ccc(-c4ccc(OC)c(CO)c4)nc3n2)c1 [Example 19h] | < 1000
COc1ccc(-c2ccc3c(N4CCOC[C@@H]4C)nc(-c4cccc([N+](=O)[O-])c4)nc3n2)cc1CO [Example 19i] | < 1000
COCc1cccc(-c2nc(N3CCOC[C@@H]3C)c3ccc(-c4ccc(OC)c(CO)c4)nc3n2)c1 [Example 19l] | < 1000
COc1ccc(-c2ccc3c(N4CCOC[C@@H]4C)nc(-c4cccc(C(F)(F)F)c4)nc3n2)cc1CO [Example 19m] | < 1000
COc1ccc(-c2ccc3c(N4CCOC[C@@H]4C)nc(-c4cccc(C)c4)nc3n2)cc1CO [Example 19n] | < 1000
COc1cccc(-c2nc(N3CCOC[C@@H]3C)c3ccc(-c4ccc(OC)c(CO)c4)nc3n2)c1 [Example 19o] | < 1000
C[C@H]1COCCN1c1nc(-c2ccncc2)nc2nc(-c3cccc(CO)c3)ccc12 [Example 19q] | < 1000
COc1cncc(-c2nc(N3CCOC[C@@H]3C)c3ccc(-c4cccc(CO)c4)nc3n2)c1 [Example 19s] | < 1000
C[C@H]1COCCN1c1nc(-c2cccnc2F)nc2nc(-c3cccc(CO)c3)ccc12 [Example 19u] | < 1000
C[C@H]1COCCN1c1nc(-c2cnn(C)c2)nc2nc(-c3cccc(CO)c3)ccc12 [Example 19v] | < 1000
Cc1nn(C)c(C)c1-c1nc(N2CCOC[C@@H]2C)c2ccc(-c3cccc(CO)c3)nc2n1 [Example 19w] | < 1000
